Measured values: patent US5128331A, “Method for lowering plasma lipid levels or blood pressure” (priority 1988, dated 1992)
Where two headings read alike, the source gives them in different places.

Tested on: mice of the OF1 strain
Assay: Hypolipidemic activity: plasma cholesterol and plasma triglycerides in mice fed compound in chow
Assay type: in vivo
Settings: for change in vivo at 180 mg/kg: Mus musculus, feed or water, 240 h
Experimental: With the goal of finding new drugs which might be hypolipidemic, the new diphosphonates described in this patent application were administered orally to mice. This rodent species has plasma lipid level relatively close to man (generally greater than 150 mg/dl). For example, in mice receiving a normal diet the plasma cholesterol and triglyceride levels are in the range of 100 mg/dl, whereas for rat the comparative values are close to 50 mg/dl.
In every screening experiment, 30 mice of the OF1 strain weighing 25 to 35 g were divided into 5 groups of 6 animals each. Four groups received the compounds to be tested, or the reference drugs, the fifth group served as control. Compounds were dissolved in diethyl ether, and solution was added to the pelleted food and the ether was evaporated.
All compounds were tested at the final concentration of 0.1% in animal chow, equivalent to a daily intake of about 180 mg/kg. This diet was fed for 10 days, then after an overnight fasting the animals were sacrified by decapitation under ether anesthesia. Blood samples were collected in EDTA containing tubes.
Plasma cholesterol and plasma triglycerides were measured by enzymatic methods (Ames kit No. 6376 and No. 6630).

[1] = read-out: Cholesterol (% control)
[2] = read-out: Triglycerides (% control)
[3] = mice, 0.1% in animal chow (about 180 mg/kg daily), 10 days, Table 3, given as change from control, read-out: Cholesterol (% control)
[4] = mice, 0.1% in animal chow (about 180 mg/kg daily), 10 days, Table 3, given as change from control, read-out: Triglycerides (% control)

Compound	change in vivo at 180 mg/kg [1]	change in vivo at 180 mg/kg [2]	hypocholesterolemic activity (in words) (mice, 0.1% in chow, 10 days)	hypotriglyceridemia (in words) (mice, 0.1% in chow, 10 days)	further results
CCOP(=O)(OCC)C(CC)(Cc1cc(C(C)(C)C)c(O)c(C(C)(C)C)c1)P(=O)(OCC)OCC [Compound 21, Tetraethyl 1-(3,5-ditertiarybutyl-4-hydroxyphenyl)-butylidene-2,2-diphosphonate]	-16%	-28%	hypocholesterolemic	significant hypotriglyceridemia	
CC(C)OP(=O)(OC(C)C)C(Sc1cc(C(C)(C)C)c(O)c(C(C)(C)C)c1)P(=O)(OC(C)C)OC(C)C [Compound 22]	-21%	-37%	hypocholesterolemic	significant hypotriglyceridemia	
CC(C)OC(=O)C(C)(C)Oc1ccc(C(=O)c2ccc(Cl)cc2)cc1 [Fenofibrate, reference compound]			less hypocholesterolemic than many of the diphosphonates tested		change in vivo at 180 mg/kg [3]: -15%; change in vivo at 180 mg/kg [4]: -2%; hypocholesterolemic potency (plasma cholesterol change) (mice, 0.1% in chow, 10 days): -15%
COP(=O)(OC)C(Cc1cc(C(C)(C)C)c(O)c(C(C)(C)C)c1)P(=O)(OC)OC [Compound 10, Tetramethyl 2-(3,5-ditertiarybutyl-4-hydroxyphenyl)-ethylidene-1,1-diphosphonate]	-5%	-19%			
CCOP(=O)(OCC)C(Cc1cc2c(cc1Cl)OCO2)P(=O)(OCC)OCC [Compound 13, Tetraethyl 2-(3,4-methylenedioxy-6-chlorophenyl)-ethylidene-1,1-diphosphonate]	-5%	38%			
CCOP(=O)(OCC)C(Cc1cc(C)c(O)c(C(C)(C)C)c1)P(=O)(OCC)OCC [Compound 1, Tetraethyl 2-(3-tertiarybutyl-4-hydroxy-5-methylphenyl)-ethylidene-1,1-diphosphonate]	-2%	-28%			
CCOP(=O)(OCC)C(=Cc1cc(C(C)C)c(O)c(C(C)C)c1)P(=O)(OCC)OCC [Compound 31]	4%	-11%		significant hypotriglyceridemia	
Cc1ccc(C)c(OCCCC(C)(C)C(=O)O)c1 [Gemfibrozil, reference compound]			less hypocholesterolemic than many of the diphosphonates tested		change in vivo at 180 mg/kg [3]: -7%; change in vivo at 180 mg/kg [4]: -35%; hypotriglyceridemic potency (plasma triglyceride change) (mice, 0.1% in chow, 10 days): -35%
CCOP(=O)(OCC)C(=Cc1ccc2c(c1)OCCO2)P(=O)(OCC)OCC [Compound 39]	4%	17%			
CCOP(=O)(OCC)C(=CC=Cc1cc(C(C)(C)C)c(O)c(C(C)(C)C)c1)P(=O)(OCC)OCC [Compound 43, Tetraethyl 4-(3,5-ditertiarybutyl-4-hydroxyphenyl)-1,3-butadienylidene-1,1-diphosphonate]	-5%	-14%			
CCOP(=O)(OCC)C(CCCCCCSc1cc(C(C)(C)C)c(O)c(C(C)(C)C)c1)P(=O)(OCC)OCC [Compound 20, Tetraethyl 7-(3,5-ditertiarybutyl-4-hydroxyphenylthio)-heptylidene-1,1-diphosphonate]	5%	13%			
CC(C)(C)c1cc(CC(P2(=O)OCCCO2)P2(=O)OCCCO2)cc(C(C)(C)C)c1O [Compound 24]			hypocholesterolemic	significant hypotriglyceridemia	change in vivo at 180 mg/kg [3]: -20%; change in vivo at 180 mg/kg [4]: -71%; decreased plasma triglycerides by (mice, 0.1% in chow, 10 days): more than 44%
CC(C)OP(=O)(OC(C)C)C(=Cc1cc(C(C)(C)C)c(O)c(C(C)(C)C)c1)P(=O)(OC(C)C)OC(C)C [Compound 34]			hypocholesterolemic		change in vivo at 180 mg/kg [3]: -41%; change in vivo at 180 mg/kg [4]: 11%; hypocholesterolemic potency (plasma cholesterol change) (mice, 0.1% in chow, 10 days): -41%
CCOC(=O)C(C)(C)Oc1ccc(Cl)cc1 [Clofibrate, reference compound]			less hypocholesterolemic than many of the diphosphonates tested		change in vivo at 180 mg/kg [3]: 4%; change in vivo at 180 mg/kg [4]: -5%
CCOP(=O)(OCC)C(=Cc1cc(C(C)(C)C)c(OC(C)=O)c(C(C)(C)C)c1)P(=O)(OCC)OCC [Compound 41, Tetraethyl 2-(3,5-ditertiarybutyl-4-acetoxyphenyl)-ethenylidene-1,1-diphosphonate]	-3%	6%			
CCOP(=O)(OCC)C(=Cc1cc(C(C)(C)C)cc(C(C)(C)C)c1O)P(=O)(OCC)OCC [Compound 46]	1%	-12%			
CCOP(=O)(OCC)C(=Cc1ccc2c(c1)OCO2)P(=O)(OCC)OCC [Compound 38, Tetraethyl 2(3,4-methylenedioxyphenyl)-ethenylidene-1,1-diphosphonate]	-5%	-6%			
CCCOP(=O)(OCCC)C(Cc1cc(C(C)(C)C)c(O)c(C(C)(C)C)c1)P(=O)(OCCC)OCCC [Compound 23]	-15%	-33%	hypocholesterolemic	significant hypotriglyceridemia	
CCCCOP(=O)(OCCCC)C(=Cc1cc(C(C)(C)C)c(O)c(C(C)(C)C)c1)P(=O)(OCCCC)OCCCC [Compound 35]					change in vivo at 180 mg/kg [3]: 0%; change in vivo at 180 mg/kg [4]: 7%
CCCOP(=O)(OCCC)C(=Cc1cc(C(C)(C)C)c(O)c(C(C)(C)C)c1)P(=O)(OCCC)OCCC [Compound 48]			hypocholesterolemic	significant hypotriglyceridemia	change in vivo at 180 mg/kg [3]: -21%; change in vivo at 180 mg/kg [4]: -36%
CCOP(=O)(OCC)C(=Cc1cc(C)c(O)c(C(C)(C)C)c1)P(=O)(OCC)OCC [Compound 30, Tetraethyl 2-(3-tertiarybutyl-4-hydroxy-5-methylphenyl)-ethenylidene-1,1-diphosphonate]	2%	-45%		significant hypotriglyceridemia	decreased plasma triglycerides by (mice, 0.1% in chow, 10 days): more than 44%
CCCCOP(=O)(OCCCC)C(=Cc1cc(C(C)(C)C)c(O)c(C(C)(C)C)c1)P(=O)(OCC)OCC [Compound 42, Dibutyl diethyl 2-(3,5-ditertiarybutyl-4-hydroxyphenyl)-ethenylidene-1,1-diphosphonate]	12%	1%			
CCOP(=O)(OCC)C(Cc1cc(C(C)C)c(O)c(C(C)C)c1)P(=O)(OCC)OCC [Compound 2]	6%	-17%			
CCOP(=O)(OCC)C(=Cc1cc(C(C)CC)c(O)c(C(C)CC)c1)P(=O)(OCC)OCC (centres unmarked) [Compound 32]	8%	9%			
COP(=O)(OC)C(=Cc1cc(C(C)(C)C)c(O)c(C(C)(C)C)c1)P(=O)(OC)OC [Compound 47]	-31%	-45%	hypocholesterolemic	significant hypotriglyceridemia	decreased plasma triglycerides by (mice, 0.1% in chow, 10 days): more than 44%
